{
  "source": "patent US9433208B2",
  "about": "“Crop oil concentrate adjuvants containing amine surfactants” (Huntsman Petrochemical LLC, priority 2004, dated 2016)",
  "origin": "cited, not measured here",
  "note": "Read-outs that look alike come from different tables or passages of the source.",
  "data": [
    {"compound": "CNC(=O)CSP(=S)(OC)OC", "note": "[Cygon, dimethoate]", "values": [
      {"measurement": "time to lose 50 percent of its pest control power", "setting": "mixed in water of pH 9", "result": 48, "unit": "min"},
      {"measurement": "time to lose 50 percent of its pest control power", "setting": "pH of 6", "result": 720, "unit": "min"}
    ]}
  ]
}
